Assay results: the supplement of paper PMC12076712

Tests used:
Assay in all cases: pIC50, kinobeads binding competition
Conditions in all cases: cell material: Jurkat lysate
UniProt Q8NEB9 = target: UniProt Q8NEB9
UniProt P80192 = target: UniProt P80192
UniProt Q99759 = target: T1, UniProt Q99759
T1 sequence (whole entry): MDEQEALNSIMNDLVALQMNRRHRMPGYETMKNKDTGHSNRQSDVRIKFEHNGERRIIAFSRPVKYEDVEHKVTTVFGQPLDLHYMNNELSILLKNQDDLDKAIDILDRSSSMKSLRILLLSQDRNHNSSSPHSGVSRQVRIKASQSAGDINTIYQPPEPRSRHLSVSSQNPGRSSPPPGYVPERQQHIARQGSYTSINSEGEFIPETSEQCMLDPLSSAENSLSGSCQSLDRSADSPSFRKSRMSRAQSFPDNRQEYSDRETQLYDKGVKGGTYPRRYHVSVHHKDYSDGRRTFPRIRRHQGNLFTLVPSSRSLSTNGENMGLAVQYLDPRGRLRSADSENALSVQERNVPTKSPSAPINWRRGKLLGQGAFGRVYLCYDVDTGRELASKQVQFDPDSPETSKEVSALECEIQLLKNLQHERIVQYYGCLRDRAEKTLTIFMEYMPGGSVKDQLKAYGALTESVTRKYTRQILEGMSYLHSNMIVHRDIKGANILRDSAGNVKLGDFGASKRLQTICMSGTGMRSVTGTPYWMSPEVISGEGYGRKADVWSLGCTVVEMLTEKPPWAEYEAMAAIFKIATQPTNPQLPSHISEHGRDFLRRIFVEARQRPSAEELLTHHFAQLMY

UniProt Q8TF76 = target: T2, UniProt Q8TF76
T2 sequence (whole entry): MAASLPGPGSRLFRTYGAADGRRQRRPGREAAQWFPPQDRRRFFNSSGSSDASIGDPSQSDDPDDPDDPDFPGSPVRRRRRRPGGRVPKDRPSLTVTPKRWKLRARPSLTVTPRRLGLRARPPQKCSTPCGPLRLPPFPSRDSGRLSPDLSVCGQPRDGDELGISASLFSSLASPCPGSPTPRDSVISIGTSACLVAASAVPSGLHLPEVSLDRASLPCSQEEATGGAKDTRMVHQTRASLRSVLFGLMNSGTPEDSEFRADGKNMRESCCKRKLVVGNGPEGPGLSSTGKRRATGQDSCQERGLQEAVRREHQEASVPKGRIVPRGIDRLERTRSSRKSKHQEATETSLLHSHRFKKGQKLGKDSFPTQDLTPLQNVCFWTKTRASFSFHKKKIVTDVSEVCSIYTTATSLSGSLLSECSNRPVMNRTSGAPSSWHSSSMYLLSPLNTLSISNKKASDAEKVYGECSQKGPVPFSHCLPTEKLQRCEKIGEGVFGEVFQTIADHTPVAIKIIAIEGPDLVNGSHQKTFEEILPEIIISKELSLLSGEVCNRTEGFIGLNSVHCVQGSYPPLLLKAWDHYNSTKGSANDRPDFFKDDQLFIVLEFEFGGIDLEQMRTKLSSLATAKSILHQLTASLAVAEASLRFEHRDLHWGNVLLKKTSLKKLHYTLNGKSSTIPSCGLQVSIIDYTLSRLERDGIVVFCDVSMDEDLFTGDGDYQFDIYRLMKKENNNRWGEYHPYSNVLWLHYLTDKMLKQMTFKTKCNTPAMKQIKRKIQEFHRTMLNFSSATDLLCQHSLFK

UniProt Q9Y2K2 = target: UniProt Q9Y2K2
Chain of UniProt Q9Y2K2 (Q9Y2K2 whole entry, looked up): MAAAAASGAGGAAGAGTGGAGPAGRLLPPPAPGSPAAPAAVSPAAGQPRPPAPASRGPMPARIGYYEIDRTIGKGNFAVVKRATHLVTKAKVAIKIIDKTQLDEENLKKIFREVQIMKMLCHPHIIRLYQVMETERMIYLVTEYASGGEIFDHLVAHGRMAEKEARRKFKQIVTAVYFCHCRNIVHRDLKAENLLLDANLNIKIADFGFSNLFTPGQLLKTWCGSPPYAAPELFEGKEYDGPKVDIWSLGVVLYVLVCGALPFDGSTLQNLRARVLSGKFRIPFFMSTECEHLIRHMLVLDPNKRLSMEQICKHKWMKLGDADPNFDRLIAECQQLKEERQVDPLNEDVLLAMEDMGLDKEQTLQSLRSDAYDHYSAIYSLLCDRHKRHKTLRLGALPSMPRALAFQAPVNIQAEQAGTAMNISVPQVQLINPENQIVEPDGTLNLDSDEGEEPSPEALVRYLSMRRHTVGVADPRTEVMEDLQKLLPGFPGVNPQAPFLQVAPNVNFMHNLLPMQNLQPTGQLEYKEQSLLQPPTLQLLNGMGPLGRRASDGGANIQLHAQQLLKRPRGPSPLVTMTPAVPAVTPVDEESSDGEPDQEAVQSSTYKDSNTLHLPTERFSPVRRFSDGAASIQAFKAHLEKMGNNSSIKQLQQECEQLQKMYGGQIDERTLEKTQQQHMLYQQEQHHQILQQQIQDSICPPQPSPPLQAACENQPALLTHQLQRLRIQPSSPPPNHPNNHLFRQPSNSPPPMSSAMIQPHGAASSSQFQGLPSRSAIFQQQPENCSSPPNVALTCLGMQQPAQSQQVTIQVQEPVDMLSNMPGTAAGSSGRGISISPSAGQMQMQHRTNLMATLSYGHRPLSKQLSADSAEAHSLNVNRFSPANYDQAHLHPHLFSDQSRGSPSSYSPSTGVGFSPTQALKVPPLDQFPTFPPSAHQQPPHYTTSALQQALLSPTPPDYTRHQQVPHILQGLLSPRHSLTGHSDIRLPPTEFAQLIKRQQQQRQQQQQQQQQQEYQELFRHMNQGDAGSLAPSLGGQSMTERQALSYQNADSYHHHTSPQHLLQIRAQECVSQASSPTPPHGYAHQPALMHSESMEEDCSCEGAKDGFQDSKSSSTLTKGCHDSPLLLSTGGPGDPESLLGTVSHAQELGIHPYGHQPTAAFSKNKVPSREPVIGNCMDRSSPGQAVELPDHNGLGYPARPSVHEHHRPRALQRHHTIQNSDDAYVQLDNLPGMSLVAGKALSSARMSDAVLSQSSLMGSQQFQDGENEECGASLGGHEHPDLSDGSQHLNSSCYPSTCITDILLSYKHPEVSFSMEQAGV

ACVR2B = ACVR2B (UniProt Q13705)
Chain of ACVR2B (Q13705 whole entry): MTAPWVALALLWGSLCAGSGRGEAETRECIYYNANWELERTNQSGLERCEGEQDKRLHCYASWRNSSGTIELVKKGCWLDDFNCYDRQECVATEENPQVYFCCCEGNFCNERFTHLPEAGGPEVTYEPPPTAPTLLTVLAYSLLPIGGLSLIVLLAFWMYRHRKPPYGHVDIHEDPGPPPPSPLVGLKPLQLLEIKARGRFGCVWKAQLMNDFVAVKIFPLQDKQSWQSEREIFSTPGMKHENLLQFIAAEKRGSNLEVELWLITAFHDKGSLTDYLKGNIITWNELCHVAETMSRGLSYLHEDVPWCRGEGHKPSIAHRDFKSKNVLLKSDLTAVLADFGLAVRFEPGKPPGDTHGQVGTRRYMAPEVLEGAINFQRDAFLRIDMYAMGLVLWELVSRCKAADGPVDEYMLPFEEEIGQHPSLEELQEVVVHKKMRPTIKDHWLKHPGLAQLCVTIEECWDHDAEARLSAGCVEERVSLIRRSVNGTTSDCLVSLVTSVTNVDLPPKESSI

SRPK2 = SRPK2 (UniProt P78362)
Chain of SRPK2 (P78362 whole entry, looked up): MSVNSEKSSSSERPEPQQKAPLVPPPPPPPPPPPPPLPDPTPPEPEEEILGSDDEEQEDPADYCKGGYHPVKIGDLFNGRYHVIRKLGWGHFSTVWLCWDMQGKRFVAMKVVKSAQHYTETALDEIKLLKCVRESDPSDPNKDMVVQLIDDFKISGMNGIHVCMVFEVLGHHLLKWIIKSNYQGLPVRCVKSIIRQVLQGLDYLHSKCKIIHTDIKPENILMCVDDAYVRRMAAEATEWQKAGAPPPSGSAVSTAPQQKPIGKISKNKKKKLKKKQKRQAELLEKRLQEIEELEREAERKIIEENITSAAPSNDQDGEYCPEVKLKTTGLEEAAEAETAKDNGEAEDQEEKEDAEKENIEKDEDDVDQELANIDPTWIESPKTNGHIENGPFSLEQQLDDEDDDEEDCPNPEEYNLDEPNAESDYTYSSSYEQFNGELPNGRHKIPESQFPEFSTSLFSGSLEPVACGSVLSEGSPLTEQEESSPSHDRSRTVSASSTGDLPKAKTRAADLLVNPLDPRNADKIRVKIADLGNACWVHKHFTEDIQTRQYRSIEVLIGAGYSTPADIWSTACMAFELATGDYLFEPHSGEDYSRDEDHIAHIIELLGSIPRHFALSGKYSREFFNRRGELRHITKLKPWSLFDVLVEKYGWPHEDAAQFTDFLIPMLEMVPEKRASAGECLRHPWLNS

UniProt Q9Y2H1 = target: UniProt Q9Y2H1
Chain of UniProt Q9Y2H1 (Q9Y2H1 whole entry, looked up): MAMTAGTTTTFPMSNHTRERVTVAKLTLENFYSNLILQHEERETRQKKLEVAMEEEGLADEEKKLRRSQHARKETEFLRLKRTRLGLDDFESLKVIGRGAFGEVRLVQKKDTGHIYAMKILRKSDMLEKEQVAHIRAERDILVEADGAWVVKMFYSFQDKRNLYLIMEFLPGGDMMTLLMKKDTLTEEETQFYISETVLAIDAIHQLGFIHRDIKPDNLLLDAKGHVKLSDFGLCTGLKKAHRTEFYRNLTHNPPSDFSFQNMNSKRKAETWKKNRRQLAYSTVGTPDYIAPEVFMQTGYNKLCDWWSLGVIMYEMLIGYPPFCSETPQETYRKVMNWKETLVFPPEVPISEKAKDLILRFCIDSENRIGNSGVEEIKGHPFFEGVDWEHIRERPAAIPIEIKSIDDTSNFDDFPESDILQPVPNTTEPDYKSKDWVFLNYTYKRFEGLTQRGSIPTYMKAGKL

UniProt P35626 = target: T3, UniProt P35626
T3 sequence (whole entry): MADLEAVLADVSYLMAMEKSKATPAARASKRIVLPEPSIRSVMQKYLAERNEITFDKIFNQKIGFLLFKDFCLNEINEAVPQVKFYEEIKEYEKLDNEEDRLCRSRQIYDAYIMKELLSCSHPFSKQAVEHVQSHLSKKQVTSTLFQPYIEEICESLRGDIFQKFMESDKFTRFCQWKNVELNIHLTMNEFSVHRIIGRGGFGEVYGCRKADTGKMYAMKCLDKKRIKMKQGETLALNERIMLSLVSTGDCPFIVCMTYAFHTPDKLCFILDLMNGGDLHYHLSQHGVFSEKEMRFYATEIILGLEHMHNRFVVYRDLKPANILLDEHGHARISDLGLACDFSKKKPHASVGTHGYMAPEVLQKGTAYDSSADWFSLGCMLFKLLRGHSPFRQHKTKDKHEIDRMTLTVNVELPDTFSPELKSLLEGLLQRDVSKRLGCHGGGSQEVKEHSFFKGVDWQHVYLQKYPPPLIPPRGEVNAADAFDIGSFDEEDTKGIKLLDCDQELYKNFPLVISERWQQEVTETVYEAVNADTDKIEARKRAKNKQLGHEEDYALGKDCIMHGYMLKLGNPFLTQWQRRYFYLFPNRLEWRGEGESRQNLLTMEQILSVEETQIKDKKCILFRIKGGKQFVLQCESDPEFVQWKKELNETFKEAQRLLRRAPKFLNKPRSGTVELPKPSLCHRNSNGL

Measured: pIC50

Chain of UniProt P80192 (P80192 whole entry, looked up): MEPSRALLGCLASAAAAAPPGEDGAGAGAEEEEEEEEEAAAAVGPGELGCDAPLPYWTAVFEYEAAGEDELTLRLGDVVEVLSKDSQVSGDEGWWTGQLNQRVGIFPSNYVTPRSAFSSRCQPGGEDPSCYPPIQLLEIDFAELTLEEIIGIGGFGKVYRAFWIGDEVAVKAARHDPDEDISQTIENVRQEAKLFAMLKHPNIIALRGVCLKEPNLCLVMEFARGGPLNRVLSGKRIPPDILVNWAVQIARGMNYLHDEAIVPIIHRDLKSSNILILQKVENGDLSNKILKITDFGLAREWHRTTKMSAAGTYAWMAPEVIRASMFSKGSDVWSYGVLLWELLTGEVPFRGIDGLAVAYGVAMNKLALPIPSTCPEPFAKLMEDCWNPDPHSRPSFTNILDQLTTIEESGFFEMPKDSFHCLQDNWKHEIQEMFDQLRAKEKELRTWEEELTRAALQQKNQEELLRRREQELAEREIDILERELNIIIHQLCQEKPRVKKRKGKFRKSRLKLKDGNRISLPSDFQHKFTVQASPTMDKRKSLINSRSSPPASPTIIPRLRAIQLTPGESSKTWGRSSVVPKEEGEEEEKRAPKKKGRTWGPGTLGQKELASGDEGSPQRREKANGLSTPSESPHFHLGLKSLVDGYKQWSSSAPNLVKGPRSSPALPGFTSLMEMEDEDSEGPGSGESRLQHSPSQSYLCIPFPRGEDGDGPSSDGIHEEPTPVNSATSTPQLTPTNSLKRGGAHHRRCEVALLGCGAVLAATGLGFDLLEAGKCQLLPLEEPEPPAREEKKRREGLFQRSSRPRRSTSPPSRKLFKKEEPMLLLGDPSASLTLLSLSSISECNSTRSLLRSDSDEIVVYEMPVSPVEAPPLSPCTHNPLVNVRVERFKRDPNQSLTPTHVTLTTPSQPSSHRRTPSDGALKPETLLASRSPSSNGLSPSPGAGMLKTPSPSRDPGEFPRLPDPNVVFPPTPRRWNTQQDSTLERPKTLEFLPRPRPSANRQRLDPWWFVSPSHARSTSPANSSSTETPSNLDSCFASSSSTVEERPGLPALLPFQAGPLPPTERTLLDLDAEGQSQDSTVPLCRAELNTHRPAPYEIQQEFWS
Chain of UniProt Q8NEB9 (Q8NEB9 whole entry): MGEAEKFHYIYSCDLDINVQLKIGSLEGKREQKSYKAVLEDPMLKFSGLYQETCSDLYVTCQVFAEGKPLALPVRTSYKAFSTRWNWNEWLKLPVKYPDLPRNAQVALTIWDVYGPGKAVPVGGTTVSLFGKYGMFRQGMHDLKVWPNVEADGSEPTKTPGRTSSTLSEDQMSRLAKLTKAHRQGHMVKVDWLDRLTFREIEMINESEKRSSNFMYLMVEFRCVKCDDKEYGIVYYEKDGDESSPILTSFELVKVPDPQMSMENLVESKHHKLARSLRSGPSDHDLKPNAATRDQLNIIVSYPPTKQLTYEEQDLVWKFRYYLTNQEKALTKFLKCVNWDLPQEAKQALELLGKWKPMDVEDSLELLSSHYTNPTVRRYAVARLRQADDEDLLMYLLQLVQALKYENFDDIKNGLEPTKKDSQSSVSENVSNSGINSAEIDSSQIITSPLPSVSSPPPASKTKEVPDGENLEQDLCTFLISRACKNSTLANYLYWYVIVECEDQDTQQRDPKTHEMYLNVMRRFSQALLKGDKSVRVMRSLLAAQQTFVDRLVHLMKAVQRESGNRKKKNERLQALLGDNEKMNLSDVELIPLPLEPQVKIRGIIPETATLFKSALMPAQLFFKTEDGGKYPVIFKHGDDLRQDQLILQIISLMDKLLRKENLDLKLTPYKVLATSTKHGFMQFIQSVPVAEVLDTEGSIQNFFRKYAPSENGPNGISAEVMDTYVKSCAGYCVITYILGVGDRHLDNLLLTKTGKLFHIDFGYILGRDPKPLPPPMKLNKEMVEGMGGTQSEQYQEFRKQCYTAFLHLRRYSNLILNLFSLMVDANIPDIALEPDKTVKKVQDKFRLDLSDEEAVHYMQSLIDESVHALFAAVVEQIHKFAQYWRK

CCc1cnn2c(NCc3ccc[n+]([O-])c3)cc(N3CCCC[C@H]3CCO)nc12 [dinaciclib]
< 4.52: all assays above
